Source: patent US4226879A, “Antibiotic composition” (Kyowa Hakko Kogyo Kabushiki Kaisha, priority 1976, dated 1980)
≈ marks a conversion by molar mass, not a printed value. Entries after “also recorded” stand apart in the source; their conditions may differ.

Tests used:
B. anthracis = assay: microbe, parasite or virus in culture; format: cell-based; conditions: Bacillus anthracis, 18 h, pH 7
poultry [1] = assay: growth-promoting effect in poultry; format: in vivo; conditions: 0.001 to 0.02% by weight of the diet
From the text: Thus, AM-1042 is potentially of interest owing to its growth-promoting effect. For this purpose, the mode of administration is analogous to those described above.

Eimeria maxima = assay: anticoccidial activity; format: in vivo
Alternaria kikuchiana = assay: MIC, agar dilution method; format: cell-based; conditions: pH 6.8, 27° C. 72 hours
in vivo = conditions: mouse, ip
[2] = tested on: S. aureus KB-64 (tetracycline & erythromycin-resistant); assay: MIC, agar dilution method; format: cell-based; conditions: Staphylococcus aureus; pH 7.0, 37° C., 18 hours
[3] = tested on: Pseudomonas aerginosa P-3; assay: MIC, agar dilution method; format: cell-based; conditions: P3, pH 7.0, 37° C., 18 hours
[4] = tested on: Eimeria tenella K-2, E. acervulina and E. maxima; assay: anticoccidial test in chicks, mixed infection (Example 5); format: in vivo, E. maxima (in chicks); parameters: key to Caecal lession: -: not infected; +: light; ++: middle; +++: heavy; conditions: for RIW (ratio of the increase of the body weight): vs healthy chicks
Method: The results are shown in Table 5 where the ratio of the increase of the body weight (RIW) is calculated as follows: (RIW (%)=[weight at the completion of the test (in average)]/[weight of healthy chicks (control) in average]×100%.

Cryptococcus neoformans = assay: MIC, agar dilution method; format: cell-based; conditions: pH 6.8, 27° C. 72 hours
B. subtilis NRRL B-558 = assay: MIC, agar dilution method; format: cell-based; conditions: Bacillus subtilis, NRRLB558; pH 7.0, 37° C., 18 hours
Eimeria tenella = assay: anticoccidial activity; format: in vivo
Eimeria brunetti = assay: anticoccidial activity; format: in vivo
B. megaterium APF = assay: MIC, agar dilution method; format: cell-based; conditions: Priestia megaterium; pH 7.0, 37° C., 18 hours
Piricularia oryzae = assay: microbe, parasite or virus in culture; format: cell-based; conditions: 72 h, pH 6.8
poultry [5] = assay: side effects in poultry; format: in vivo, poultry such as chickens; conditions: pharmaceutical composition or assorted diet, chickens, turkeys
Sacchromyces cerevisiae = assay: MIC, agar dilution method; format: cell-based; conditions: pH 6.8, 27° C. 72 hours
S. aureus FDA 209P JC-1 = assay: MIC, agar dilution method; format: cell-based; conditions: Staphylococcus aureus, FDA209P; pH 7.0, 37° C., 18 hours
B. cereus T = assay: MIC, agar dilution method; format: cell-based
mice = conditions: mouse, in vivo, 450 mg/kg
[6] = tested on: Corynebacterium paurometabolum; assay: MIC, agar dilution method; format: cell-based; conditions: Tsukamurella paurometabola; pH 7.0, 37° C., 18 hours
Shigella sonnei E-33 = assay: MIC, agar dilution method; format: cell-based; conditions: E33, pH 7.0, 37° C., 18 hours
Method: (§1) Table 1 indicates the antibacterial and antifungal activity of AM-1042 as minimum inhibitory concentration (mcg/ml) determined by the agar dilution method.
(§2) *Peptone 0.5%; meat extract 0.5%; agar 1.2% (pH 7.0), 37° C., 18

B. agri = assay: MIC, agar dilution method; format: cell-based; conditions: pH 7.0, 37° C., 18 hours
Method: as §1, §2

E. coli B = assay: MIC, agar dilution method; format: cell-based; conditions: Escherichia coli; pH 7.0, 37° C., 18 hours
Method: as §1, §2

S. albus = assay: MIC, agar dilution method; format: cell-based; conditions: pH 7.0, 37° C., 18 hours
Method: as §1, §2

[7] = tested on: S. aureus FS-1277 (penicillin-resistant); assay: MIC, agar dilution method; format: cell-based; conditions: Staphylococcus aureus; pH 7.0, 37° C., 18 hours
Sarcina lutea PCI 1001 = assay: MIC, agar dilution method; format: cell-based
Candida albicans = assay: MIC, agar dilution method; format: cell-based; conditions: pH 6.8, 27° C. 72 hours
Gram-negative bacteria = assay: growth inhibition, agar dilution method; format: cell-based; conditions: at concentration below 100 mcg/ml
Method: as §1, §2

[8] = solubility in various solvents; format: physicochemical
Sclerotinia cinerea = assay: MIC, agar dilution method; format: cell-based; conditions: pH 6.8, 27° C. 72 hours
Escherchia coli NIHJ = assay: MIC, agar dilution method; format: cell-based; conditions: pH 7.0, 37° C., 18 hours
[9] = tested on: Bacillus subtilis PCI 219; assay: MIC, agar dilution method; format: cell-based; conditions: PCI219, pH 7.0, 37° C., 18 hours
[10] = tested on: Klebsiella pneumoniae PCI 602; assay: MIC, agar dilution method; format: cell-based; conditions: PCI602, pH 7.0, 37° C., 18 hours

SMILES: O=C(/C=C/C=C/C=C/C1CCCCC1)NC1=CC(O)(/C=C/C=C/C=C/C(=O)NC2=C(O)CCC2=O)C2OC2C1=O (stereo not drawn) [AM-1042]
- MIC (B. anthracis): 12.5 µg/mL (≈ 22.9 µM)
- growth-promoting effect (poultry [1]): capable of promoting the growth of poultry; also recorded: exhibits a growth-promoting effect
- activity upon coccidiosis (Eimeria maxima): significantly active
- MIC (Alternaria kikuchiana): > 100 µg/mL
- LD50 (in vivo): 48.5 mg/kg
- MIC [2]: 6.2 µg/mL (≈ 11.3 µM)
- MIC [3]: > 100 µg/mL
- Caecal lession ([4]; 0.005 % AM-1042 (Test-5)): +
- Survival ratio ([4]; 0.005 % AM-1042 (Test-5)): 90%
- RIW (ratio of the increase of the body weight) ([4]; 0.005 % AM-1042 (Test-5)): 98.7%
- Caecal lession ([4]; 0.0075 % AM-1042 (Test-4)): -
- Survival ratio ([4]; 0.0075 % AM-1042 (Test-4)): 100%
- RIW (ratio of the increase of the body weight) ([4]; 0.0075 % AM-1042 (Test-4)): 99.9%
- Caecal lession ([4]; 0.01 % AM-1042 (Test-3)): -
- Survival ratio ([4]; 0.01 % AM-1042 (Test-3)): 100%
- RIW (ratio of the increase of the body weight) ([4]; 0.01 % AM-1042 (Test-3)): 100.8%
- Caecal lession ([4]; 0.015 % AM-1042 (Test-2)): -
- Survival ratio ([4]; 0.015 % AM-1042 (Test-2)): 100%
- RIW (ratio of the increase of the body weight) ([4]; 0.015 % AM-1042 (Test-2)): 100.5%
- Caecal lession ([4]; 0.02 % AM-1042 (Test-1)): -
- Survival ratio ([4]; 0.02 % AM-1042 (Test-1)): 100%
- RIW (ratio of the increase of the body weight) ([4]; 0.02 % AM-1042 (Test-1)): 100.2%
- MIC (Cryptococcus neoformans): > 100 µg/mL
- MIC (B. subtilis NRRL B-558): > 100 µg/mL
- activity upon coccidiosis (Eimeria tenella; Eimeria tenella, also when resistant to amprolium hydrochloride, clopidol, robenidine hydrochloride): significantly active
- reducing mortality of chicks (Eimeria tenella; chicks infected with Eimeria tenella): effective in reducing mortality of chicks
- activity upon coccidiosis (Eimeria brunetti): significantly active
- MIC (B. megaterium APF): 6.2 µg/mL (≈ 11.3 µM)
- MIC (Piricularia oryzae): 100 µg/mL (≈ 183 µM)
- side effects in poultry (poultry [5]): without any side effects
- MIC (Sacchromyces cerevisiae): > 100 µg/mL
- MIC (S. aureus FDA 209P JC-1): 0.7 µg/mL (≈ 1.28 µM)
- activity upon Bacillus cereus (B. cereus T): active
- MIC (B. cereus T; Bacillus cereus, pH 7.0, 37° C., 18 hours): 3.1 µg/mL (≈ 5.67 µM)
- side effect on mice (mice): no side effect
- MIC [6]: 1.56 µg/mL (≈ 2.85 µM)
- MIC (Shigella sonnei E-33): > 100 µg/mL
- MIC (B. agri): 12.5 µg/mL (≈ 22.9 µM)
- MIC (E. coli B): > 100 µg/mL
- MIC (S. albus): 12.5 µg/mL (≈ 22.9 µM)
- MIC [7]: 6.2 µg/mL (≈ 11.3 µM)
- activity upon Sarcina lutea (Sarcina lutea PCI 1001): active
- MIC (Sarcina lutea PCI 1001; Micrococcus luteus, PCI1001, pH 7.0, 37° C., 18 hours): 6.2 µg/mL (≈ 11.3 µM)
- MIC (Candida albicans): > 100 µg/mL
- effect on Gram-negative bacteria (Gram-negative bacteria): no significant effect
- solubility ([8]; in acetone): Soluble
- solubility ([8]; in chloroform): Soluble
- solubility ([8]; in dimethylformamide): Easily soluble
- solubility ([8]; in dimethylsulfoxide): Easily soluble
- solubility ([8]; in ethanol): Soluble
- solubility ([8]; in ethyl acetate): Soluble
- solubility ([8]; in fat): soluble in fat
- solubility ([8]; in methanol): Soluble
- solubility ([8]; in n-hexane): Insoluble
- solubility ([8]; in petroleum ether): Insoluble
- solubility ([8]; in water): Insoluble
- MIC (Sclerotinia cinerea): 100 µg/mL (≈ 183 µM)
- MIC (Escherchia coli NIHJ): 100 µg/mL (≈ 183 µM)
- MIC [9]: 3.1 µg/mL (≈ 5.67 µM)
- MIC [10]: > 100 µg/mL
